Reference: patent US9273057B2 (Bristol-Myers Squibb Company, priority 2012, dated 2016)
Structures can show the parent of a compound that is named as a salt.

These molecules were tested against CK2A1 (CK2α/β) (Homo sapiens, UniProt P68400) (assay: CK2 kinase assay, CK2A1 (CK2α/β)). Settings: Table A; read-out: CK2A1 (CK2α/β) (IC50).
Type: biochemical

Chain of CK2A1 (CK2α/β) (P68400 whole entry, species assumed): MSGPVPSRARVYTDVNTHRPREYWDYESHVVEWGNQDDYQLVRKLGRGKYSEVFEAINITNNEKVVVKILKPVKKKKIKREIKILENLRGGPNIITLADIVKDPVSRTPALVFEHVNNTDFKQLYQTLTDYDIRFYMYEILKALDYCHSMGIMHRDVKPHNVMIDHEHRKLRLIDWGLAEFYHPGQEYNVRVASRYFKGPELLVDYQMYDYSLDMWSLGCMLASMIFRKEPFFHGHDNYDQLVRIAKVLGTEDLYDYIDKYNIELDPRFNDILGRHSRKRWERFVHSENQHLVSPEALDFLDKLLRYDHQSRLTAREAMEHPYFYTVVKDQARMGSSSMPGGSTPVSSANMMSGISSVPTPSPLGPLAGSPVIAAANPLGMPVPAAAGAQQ
Chain of CK2A1 (CK2α/β) (P67870 whole entry partner, species assumed): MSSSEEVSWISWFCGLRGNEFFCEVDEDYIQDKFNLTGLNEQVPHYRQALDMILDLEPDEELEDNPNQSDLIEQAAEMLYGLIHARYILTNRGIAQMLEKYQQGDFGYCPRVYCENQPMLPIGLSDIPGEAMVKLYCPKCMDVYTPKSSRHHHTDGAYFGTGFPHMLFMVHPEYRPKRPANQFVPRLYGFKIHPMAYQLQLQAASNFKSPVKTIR

| SMILES | IC50 |
| --- | --- |
| N#Cc1cc(Nc2nc(NC3CC3)c3ncc(C#N)n3n2)c(Cl)c(N2CCC3CCN(C4COC4)C3C2)c1 (racemic) [Example 457, (+/−)-2-((2-chloro-5-cyano-3-(1-(oxetan-3-yl)hexahydro-1H-pyrrolo[2,3-c]pyridin-6(2H)-yl)phenyl)amino)-4-(cyclopropylamino)imidazo[2,1-f][1,2,4]triazine-7-carbonitrile] | 4.9 nM |
| N#Cc1cc(Nc2nc(NC3CC3)c3ncc(C#N)n3n2)c(Cl)c(N2CCN(C3CN(C(=O)C4CCC(=O)N4)C3)CC2)c1 (stereo not shown) [Example 506, 2-[(2-chloro-5-cyano-3-{4-[1-(5-oxopyrrolidine-2-carbonyl)azetidin-3-yl]piperazin-1-yl}phenyl)amino]-4-(cyclopropylamino)imidazo[2,1-f][1,2,4]triazine-7-carbonitrile] | 4.33 nM |
| N#Cc1cc(Nc2nc(NC3CC3)c3ncc(C#N)n3n2)c(Cl)c(N2CCN(C(=O)C3CNC(=O)N3)CC2)c1 (racemic) [Example 81, (+/−)2-((2-chloro-5-cyano-3-(4-((2-oxo-4-imidazolidinyl)carbonyl)-1-piperazinyl)phenyl)amino)-4-(cyclopropylamino) imidazo[2,1-f][1,2,4] triazine-7-carbonitrile] | 1.8 nM |
| CCNc1nc(Nc2cc(C#N)cc(N3CC[C@@H](NC(=O)OC)[C@H](OC(=O)CCCCN)C3)c2Cl)nn2c(C#N)cnc12 [Example 816, (3R,4R)-1-(2-chloro-5-cyano-3-((7-cyano-4-(ethylamino)imidazo[2,1-f][1,2,4]triazin-2-yl)amino)phenyl)-4-((methoxycarbonyl)amino)piperidin-3-yl 5-aminopentanoate hydrochloride] | 5.2 nM |
| N#Cc1cnc2c(NC3CC3)nc(Nc3cc(OC(F)F)cc(N4CCN(C5COC5)CC4)c3Cl)nn12 [Example 557, 2-((2-chloro-5-(difluoromethoxy)-3-(4-(oxetan-3-yl)piperazin-1-yl)phenyl)amino)-4-(cyclopropylamino)imidazo[2,1-f][1,2,4]triazine-7-carbonitrile] | 2.05 nM |
| CN1CC2CN(c3cc(C#N)cc(Nc4nc(NC5CC5)c5ncc(C#N)n5n4)c3Cl)CC2C1 (stereo not shown) [Example 461, 2-((2-chloro-5-cyano-3-(5-methylhexahydropyrrolo[3,4-c]pyrrol-2(1H)-yl)phenyl)amino)-4-(cyclopropylamino)imidazo[2,1-f][1,2,4]triazine-7-carbonitrile] | 2.46 nM |
| CC(C)(N)CC(=O)N1CC(N2CCN(c3cc(C#N)cc(Nc4nc(NC5CC5)c5ncc(C#N)n5n4)c3Cl)CC2)C1 [Example 501, 2-[(3-{4-[1-(3-amino-3-methylbutanoyl)azetidin-3-yl]piperazin-1-yl}-2-chloro-5-cyanophenyl)amino]-4-(cyclopropylamino)imidazo[2,1-f][1,2,4]triazine-7-carbonitrile] | 2.64 nM |
| CN1CCC2CCN(c3cc(C#N)cc(Nc4nc(NC5CC5)c5ncc(C#N)n5n4)c3Cl)CC21 (racemic) [Example 456] | 2.9 nM |
| CC(C)(C)[C@H](N)C(=O)N1CC(N2CCN(c3cc(C#N)cc(Nc4nc(NC5CC5)c5ncc(C#N)n5n4)c3Cl)CC2)C1 [Example 505, 2-{[3-(4-{1-[(2S)-2-amino-3,3-dimethylbutanoyl]azetidin-3-yl}piperazin-1-yl)-2-chloro-5-cyanophenyl]amino}-4-(cyclopropylamino)imidazo[2,1-f][1,2,4]triazine-7-carbonitrile] | 5.42 nM |
| CN1CCC(N2CC(F)(c3cc(C#N)cc(Nc4nc(NC5CC5)c5ncc(C#N)n5n4)c3Cl)C2)CC1 [Example 658, 2-((2-chloro-5-cyano-3-(3-fluoro-1-(1-methylpiperidin-4-yl)azetidin-3-yl)phenyl)amino)-4-(cyclopropylamino)imidazo[2,1-f][1,2,4]triazine-7-carbonitrile] | 2.27 nM |

Molecules with a lower IC50, results first:

| IC50 | SMILES |
| --- | --- |
| 0.57 nM | CS(=O)(=O)NCC1CN(c2cc(C#N)cc(Nc3nc(NC4CC4)c4ncc(C#N)n4n3)c2Cl)CCO1 (racemic) [Example 700, (+/−)-N-((4-(2-chloro-5-cyano-3-((7-cyano-4-(cyclopropylamino)imidazo[2,1-f][1,2,4]triazin-2-yl)amino)phenyl)morpholin-2-yl)methyl)methanesulfonamide] |
| 0.71 nM | CCNc1nc(Nc2cc(C#N)cc(N3CCC4(CC3)CN(C)C(=O)O4)c2Cl)nn2c(C#N)cnc12 (racemic) [Example 781, (+/−)-2-((2-chloro-5-cyano-3-(3-methyl-2-oxo-1-oxa-3,8-diazaspiro[4.5]decan-8-yl)phenyl)amino)-4-(ethylamino)imidazo[2,1-f][1,2,4]triazine-7-carbonitrile] |
| 0.83 nM | N#Cc1cc(Nc2nc(NC3CC3)c3ncc(C#N)n3n2)c(F)c(N2CCN(C3CNC3)CC2)c1 [Example 550, 2-((3-(4-(azetidin-3-yl)piperazin-1-yl)-5-cyano-2-fluorophenyl)amino)-4-(cyclopropylamino)imidazo[2,1-f][1,2,4]triazine-7-carbonitrile] |
| 1.1 nM | N#Cc1cc(Nc2nc(NC3CC3)c3ncc(C#N)n3n2)c(Cl)c(N2CCN([C@H]3C[C@H](O)C3)CC2)c1 [Example 102, (+/−) 2-((2-chloro-5-cyano-3-(4-(trans-3-hydroxycyclobutyl)-1-piperazinyl)phenyl)amino)-4-(cyclopropylamino) imidazo[2,1-f][1,2,4] triazine-7-carbonitrile] |
| 0.38 nM | CC1CN(c2cc(C#N)cc(Nc3nc(NC4CC4)c4ncc(C#N)n4n3)c2Cl)CCN1C (racemic) [Example 35, (+/−) 2-((2-chloro-5-cyano-3-(3,4-dimethyl-1-piperazinyl)phenyl)amino)-4-(cyclopropylamino)imidazo [2,1-f][1,2,4]triazine-7-carbonitrile] |
| 0.58 nM | N#Cc1cc(Nc2nc(NC3CC3)c3ncc(C#N)n3n2)c(Cl)c(N2CCC(NC3COC3)CC2)c1 [Example 110, 2-((2-chloro-5-cyano-3-(4-(3-oxetanylamino)-1-piperidinyl)phenyl)amino)-4-(cyclopropylamino)imidazo [2,1-f][1,2,4]triazine-7-carbonitrile] |
| 0.64 nM | CCNc1nc(Nc2cc(C#N)cc(N3C[C@@H]4C[C@H]3CN4C)c2Cl)nn2c(C#N)cnc12 [Example 773, 2-((2-chloro-5-cyano-3-((1S,4S)-5-methyl-2,5-diazabicyclo[2.2.1]heptan-2-yl)phenyl)amino)-4-(ethylamino)imidazo[2,1-f][1,2,4]triazine-7-carbonitrile] |
| 1.15 nM | CN1CCN(C2CCN(c3cc(C#N)cc(Nc4nc(NC5CC5)c5ncc(C#N)n5n4)c3Cl)CC2)CC1 [Example 12, 2-((2-chloro-5-cyano-3-(4-(4-methyl-1-piperazinyl)-1-piperidinyl)phenyl)amino)-4-(cyclopropylamino)imidazo [2,1-f][1,2,4]triazine-7-carbonitrile] |
| 1.36 nM | CN1CCN(c2cc(C#N)cc(Nc3nc(NC4CC4)c4ncc(C#N)n4n3)c2Cl)CC1CO (racemic) [Example 698, (+/−)-2-({2-chloro-5-cyano-3-[3-(hydroxymethyl)-4-methylpiperazin-1-yl]phenyl}amino)-4-(cyclopropylamino)imidazo[2,1-f][1,2,4]triazine-7-carbonitrile] |
